From patent US20250195551A1 (L4 BIO LLC, priority 2023, published 2025) come the findings set out here.

In the test the test system is pentylenetetrazol (PTZ)-induced ictal brain activity. The experiment in a line: Modulation of pentylenetetrazol (PTZ)-induced seizures, BOLD fMRI in rats. The test is classed as in vivo. Conditions: 3 mg/kg, positive control; anesthetized male Wistar rats. As for the experimental part: Functional MRI (fMRI) was performed using a high-field preclinical MRI system in anesthetized male Wistar rats in order to determine the modulation of pentylenetetrazol (PTZ)-induced ictal brain activity by chronic treatment with test compound (TC). Animals treated with vehicle and 3 mg/kg Alprazolam served as controls. A schematic of the study design can be seen in FIG. 6. […] Various physiological parameters were also measured throughout the experiment including body weight, CO2 levels, blood pH, and heart rate.

Entries after “also recorded” stand apart in the source; their conditions may differ.

With `Cc1nnc2n1-c1ccc(Cl)cc1C(c1ccccc1)=NC2` [Alprazolam], the “PTZ-induced ictal brain activity (BOLD fMRI area under the curve) vs vehicle” value was “effectively cancelled PTZ-induced brain activity; also recorded: Vehicle vs. Alprazolam in all”.
